From ChEMBL document CHEMBL5344429, “1,3-Substituted β-Carboline Derivatives as Potent Chemotherapy for the Treatment of Cystic Echinococcosis” (J Med Chem, 2023)
Calls of active or inactive are those of the source. No cut-off for these calls is given here.

Legend:
Echinococcus granulosus [1] = assay: Parasiticidal activity against Echinococcus granulosus microcyst infected in kunming mouse assessed as mean cyst weight at 50 mg/kg, ip administered for 14 days; format: functional; conditions: time 14 day
Echinococcus granulosus [2] = assay: Parasiticidal activity against Echinococcus granulosus protoscolices […] by eosin exclusion test; format: functional; conditions: 1152 h, time 48 day
[3] = Neurotoxicity in Kunming mouse assessed as deformed pyramidal cells in brain at 50 mg/kg, ip administered for 28 days by H and E staining based assay; format: toxicity, organism-based; conditions: in vivo, 672 h, time 28 day
[4] = Neurotoxicity in Kunming mouse assessed as organelles damage at 50 mg/kg, ip administered for 28 days by TEM analysis; format: toxicity, organism-based; conditions: in vivo, 672 h, time 28 day
Echinococcus granulosus [5] = assay: Parasiticidal activity against Echinococcus granulosus protoscolices assessed as degeneration of outer skin at 5 uM incubated for 4 days by scanning electron microscopy; format: functional, organism-based; conditions: time 4.0 day
Echinococcus granulosus [6] = assay: Potency index, ratio of Albendazole LC50 to test compound LC50 for Parasiticidal activity against Echinococcus granulosus protoscolices; format: functional
Echinococcus granulosus [7] = assay: Parasiticidal activity against Echinococcus granulosus microcyst infected in kunming mouse assessed as reduction in cyst weight at 50 mg/kg, ip administered for 14 days relative to control; format: functional; set-up: scale not given: the % may be the effect or the level left; conditions: time 14 day
[8] = Oral bioavailability in Wistar rat at 50 mg/kg, […] by HPLC analysis; format: ADME, organism-based; conditions: in vivo
[9] = Neurotoxicity in Kunming mouse assessed as swollen pyramidal cells in brain at 50 mg/kg, ip administered for 28 days by H and E staining based assay; format: toxicity, organism-based; conditions: in vivo, 672 h, time 28 day
Echinococcus granulosus [10] = assay: Parasiticidal activity against Echinococcus granulosus microcyst infected in kunming mouse assessed as mean cyst weight at 12.5 mg/kg, ip administered for 14 days; format: functional; conditions: time 14 day
Echinococcus granulosus [11] = assay: Parasiticidal activity against Echinococcus granulosus protoscolices assessed as death rate at 0.5 uM incubated for 4 days by eosin exclusion test; format: functional; conditions: time 4 day
Echinococcus granulosus [12] = assay: Parasiticidal activity against Echinococcus granulosus cyst assessed as formation of dense aggregates at 100 uM incubated for 4 days by scanning electron microscopy; format: functional, organism-based; conditions: time 4.0 day
Echinococcus granulosus [13] = assay: Parasiticidal activity against Echinococcus granulosus microcyst infected in kunming mouse assessed as reduction in cyst weight at 25 mg/kg, ip administered for 28 days relative to control; format: functional; set-up: scale not given: the % may be the effect or the level left; conditions: time 28 day
Echinococcus granulosus [14] = assay: Parasiticidal activity against Echinococcus granulosus protoscolices assessed as change in ultrastructure at 5 uM incubated for 4 days by scanning electron microscopy; format: functional, organism-based; conditions: time 4.0 day
[15] = Neurotoxicity in Kunming mouse assessed as effect on hippocampal structure at 50 mg/kg, ip administered for 28 days by TEM analysis; format: toxicity, organism-based; conditions: in vivo, 672 h, time 28 day
[16] = Neurotoxicity in Kunming mouse assessed as effect on hippocampal arrangement at 50 mg/kg, ip administered for 28 days by TEM analysis; format: toxicity, organism-based; conditions: in vivo, 672 h, time 28 day
Echinococcus granulosus [17] = assay: Parasiticidal activity against Echinococcus granulosus microcyst infected in kunming mouse assessed as reduction in cyst weight at 12.5 mg/kg, ip administered for 14 days relative to control; format: functional; set-up: scale not given: the % may be the effect or the level left; conditions: time 14 day
Echinococcus granulosus [18] = assay: Parasiticidal activity against Echinococcus granulosus microcyst infected in kunming mouse assessed as reduction in cyst weight at 12.5 mg/kg, ip administered for 28 days relative to control; format: functional; set-up: scale not given: the % may be the effect or the level left; conditions: time 28 day
Echinococcus granulosus [19] = assay: Induction of autophagy in Echinococcus granulosus protoscolices assessed as increase in Beclin1 expression level at 5 uM measured after 4 days by Western blot analysis; format: functional, organism-based; conditions: time 4.0 day
[20] = Neurotoxicity in Kunming mouse assessed as effect on heterochromatin at 50 mg/kg, ip administered for 28 days by TEM analysis; format: toxicity, organism-based; conditions: in vivo, 672 h, time 28 day
Echinococcus granulosus [21] = assay: Parasiticidal activity against Echinococcus granulosus protoscolices assessed as appearance of disintegrated marginal structure at 5 uM incubated for 4 days by H and E staining based assay; format: functional, organism-based; conditions: time 4.0 day
Echinococcus granulosus [22] = assay: Parasiticidal activity against intraperitoneal cystic Echinococcus granulosus infected in Kunming mouse assessed as appearance of vacuole-like structure at 50 mg/kg, ip administered for 28 days by TEM analysis; format: functional, organism-based; conditions: time 28.0 day
Echinococcus granulosus [23] = assay: Parasiticidal activity against Echinococcus granulosus protoscolices assessed as lethal effect incubated for 4 days by eosin exclusion test; format: functional, organism-based; conditions: dose 0.5-5 µM, time 4.0 day
Echinococcus granulosus [24] = assay: Parasiticidal activity against Echinococcus granulosus microcyst infected in kunming mouse assessed as mean cyst weight at 50 mg/kg, ip administered for 28 days; format: functional; conditions: time 28 day
Echinococcus granulosus [25] = assay: Parasiticidal activity against Echinococcus granulosus protoscolices assessed as death rate at 5 uM incubated for 4 days by eosin exclusion test; format: functional; conditions: time 4 day
Echinococcus granulosus [26] = assay: Parasiticidal activity against Echinococcus granulosus protoscolices assessed as appearance of dissolved and disappeared matrix at 5 uM incubated for 4 days by H and E staining based assay; format: functional, organism-based; conditions: time 4.0 day
Echinococcus granulosus [27] = assay: Parasiticidal activity against Echinococcus granulosus protoscolices assessed as loss of suckers at 5 uM incubated for 4 days by scanning electron microscopy; format: functional; conditions: time 4 day
Echinococcus granulosus [28] = assay: Parasiticidal activity against Echinococcus granulosus microcyst infected in kunming mouse assessed as mean cyst weight at 12.5 mg/kg, ip administered for 28 days; format: functional; conditions: time 28 day
[29] = Half life in Wistar rat at 50 mg/kg, ip by HPLC analysis; format: ADME, organism-based; conditions: in vivo
Echinococcus granulosus [30] = assay: Parasiticidal activity against Echinococcus granulosus cyst assessed as seperation from cuticle at 100 uM incubated for 4 days by scanning electron microscopy; format: functional, organism-based; conditions: time 4.0 day
[31] = Cmax in Wistar rat at 5 mg/kg, iv by HPLC analysis; format: ADME, organism-based; set-up: dose 5 mg/kg, route iv; conditions: in vivo
[32] = Neurotoxicity in Kunming mouse assessed as loosely arranged pyramidal cells in brain at 50 mg/kg, ip administered for 28 days by H and E staining based assay; format: toxicity, organism-based; conditions: in vivo, 672 h, time 28 day
Echinococcus granulosus [33] = assay: Parasiticidal activity against Echinococcus granulosus protoscolices assessed as appearance of whole body vacuolation at 5 uM incubated for 4 days by H and E based staining assay; format: functional, organism-based; conditions: time 4.0 day
Echinococcus granulosus [34] = assay: Parasiticidal activity against Echinococcus granulosus protoscolices assessed as lethal effect at 0.5 to 5 uM by eosin exclusion test; format: functional, organism-based; conditions: dose 0.5-5 µM, TDE = time-dependent effect
[35] = AUC (0 to infinity) in Wistar rat at 5 mg/kg, iv by HPLC analysis; format: ADME, organism-based; set-up: dose 5 mg/kg, route iv; conditions: in vivo
Echinococcus granulosus [36] = assay: Parasiticidal activity against Echinococcus granulosus microcyst infected in kunming mouse assessed as mean cyst weight at 25 mg/kg, ip administered for 14 days; format: functional; conditions: time 14 day
Echinococcus granulosus [37] = assay: Parasiticidal activity against Echinococcus granulosus protoscolices assessed as increase in death rate at 5 uM incubated for 4 days by darker staining-based light microscopy; format: functional, organism-based; conditions: time 4.0 day
Echinococcus granulosus [38] = assay: Parasiticidal activity against Echinococcus granulosus microcyst infected in kunming mouse assessed as mean cyst weight at 25 mg/kg, ip administered for 28 days; format: functional; conditions: time 28 day
Echinococcus granulosus [39] = assay: Parasiticidal activity against intraperitoneal cystic Echinococcus granulosus infected in Kunming mouse assessed as disappearance of nucleolus at 50 mg/kg, ip administered for 28 days by TEM analysis; format: functional, organism-based; conditions: time 28.0 day
Echinococcus granulosus [40] = assay: Parasiticidal activity against Echinococcus granulosus microcyst infected in kunming mouse assessed as reduction in cyst weight at 25 mg/kg, ip administered for 14 days relative to control; format: functional; set-up: scale not given: the % may be the effect or the level left; conditions: time 14 day
Echinococcus granulosus [41] = assay: Parasiticidal activity against intraperitoneal cystic Echinococcus granulosus infected in Kunming mouse assessed as cell structure destruction at 50 mg/kg, ip administered for 28 days by TEM analysis; format: functional, organism-based; conditions: time 28.0 day
Echinococcus granulosus [42] = assay: Induction of autophagy in Echinococcus granulosus protoscolices assessed as decrease in p62 expression level at 5 uM measured after 4 days by Western blot analysis; format: functional, organism-based; conditions: time 4.0 day
[43] = Neurotoxicity in Kunming mouse assessed as nuclei damage at 50 mg/kg, ip administered for 28 days by TEM analysis; format: toxicity, organism-based; conditions: in vivo, 672 h, time 28 day
[44] = Half life in Wistar rat at 5 mg/kg, iv by HPLC analysis; format: ADME, organism-based; conditions: in vivo
Echinococcus granulosus [45] = assay: Parasiticidal activity against Echinococcus granulosus microcyst infected in kunming mouse assessed as reduction in cyst weight at 50 mg/kg, ip administered for 28 days relative to control; format: functional; set-up: scale not given: the % may be the effect or the level left; conditions: time 28 day
Echinococcus granulosus [46] = assay: Parasiticidal activity against Echinococcus granulosus assessed as collapse of germinal layers at 100 uM incubated for 4 days by scanning electron microscopy; format: functional, organism-based; conditions: time 4.0 day
Echinococcus granulosus [47] = assay: Induction of autophagy in Echinococcus granulosus protoscolices assessed as increase in ATG5 expression level at 5 uM measured after 4 days by Western blot analysis; format: functional, organism-based; conditions: time 4.0 day
Echinococcus granulosus [48] = assay: Parasiticidal activity against Echinococcus granulosus protoscolices assessed as loss of hooks at 5 uM incubated for 4 days by scanning electron microscopy; format: functional, organism-based; conditions: time 4.0 day

COc1ccc(-c2nc(NC(=O)c3ccc(CN4CCC(O)CC4)cc3)cc3c2[nH]c2ccccc23)cc1
Activity (Echinococcus granulosus [1]): 13.7 mg | LC50 (Echinococcus granulosus [2]): 1610 nM | Activity [3]: Non-Toxic | Activity [4]: Non-Toxic | Activity (Echinococcus granulosus [5]): Active | RatioLC50 (Echinococcus granulosus [6]): 95 | Activity (Echinococcus granulosus [7]): 73.35% | bioavailability [8]: 42.4% | Activity [9]: Non-Toxic | Activity (Echinococcus granulosus [10]): 20.9 mg | Activity (Echinococcus granulosus [11]): >50% | Activity (Echinococcus granulosus [12]): Active | Activity (Echinococcus granulosus [13]): 72.05% | Activity (Echinococcus granulosus [14]): Active | Activity [15]: Non-Toxic | Activity [16]: Non-Toxic | Activity (Echinococcus granulosus [17]): 59.41% | Activity (Echinococcus granulosus [18]): 51.12% | Activity (Echinococcus granulosus [19]): Active | Activity [20]: Non-Toxic | Activity (Echinococcus granulosus [21]): Active | Activity (Echinococcus granulosus [22]): Active | Activity (Echinococcus granulosus [23]): Dose-Dependent Effect | Activity (Echinococcus granulosus [24]): 12.6 mg | Activity (Echinococcus granulosus [25]): >90% | Activity (Echinococcus granulosus [26]): Active | Activity (Echinococcus granulosus [27]): 67.5% | Activity (Echinococcus granulosus [28]): 17.8 mg | half-life [29]: 9.08 h | Activity (Echinococcus granulosus [30]): Active | Cmax [31]: 3040 ng/mL | Activity [32]: Non-Toxic | Activity (Echinococcus granulosus [33]): Active | Activity (Echinococcus granulosus [34]): Tde | AUC(0-inf) [35]: 3000 ng·h/mL | Activity (Echinococcus granulosus [36]): 18.1 mg | Activity (Echinococcus granulosus [37]): Active | Activity (Echinococcus granulosus [38]): 15.2 mg | Activity (Echinococcus granulosus [39]): Active | Activity (Echinococcus granulosus [40]): 64.79% | Activity (Echinococcus granulosus [41]): Active | Activity (Echinococcus granulosus [42]): Active | Activity [43]: Non-Toxic | half-life [44]: 3.11 h | Activity (Echinococcus granulosus [45]): 76.87% | Activity (Echinococcus granulosus [46]): Active | Activity (Echinococcus granulosus [47]): Active | Activity (Echinococcus granulosus [48]): Active
